Reference: BigSolDB 2.1

O=[N+]([O-])c1cn[nH]c1[N+](=O)[O-]
solubility (mole fraction)
Conditions	298.15 K	303.15 K	308.15 K	313.15 K	318.15 K	323.15 K	328.15 K	333.15 K	338.15 K
in anisole	0.043	0.058	0.0778	0.103	0.138	0.181	0.237	0.313	0.411
in benzene	0.00171	0.00211	0.00264	0.00317	0.00389	0.00482	0.00585	0.00742	0.00936
in chlorobenzene	0.0012	0.00147	0.0018	0.00218	0.00266	0.00328	0.00402	0.00494	0.00609
in isopropanol	0.388	0.413	0.441	0.472	0.509	0.547	0.588	0.642	0.7
in n-butanol	0.318	0.348	0.387	0.411	0.444	0.489	0.528	0.586	0.648
in toluene	0.00201	0.0024	0.00291	0.00345	0.00411	0.00499	0.00601	0.00725	0.00877
